Test results taken from US20250361239A1, “PROTEIN DEGRADERS AND USES THEREOF” (ZHUHAI YUFAN BIOTECHNOLOGIES CO., LTD., priority 2022, published 2025).

tested on: NCI-H929 cells; test: NCI-H929 cell killing experiment (CellTiter-Glo cell viability); assay type: cell-based; conditions: Homo sapiens, 48 h incubation, CTG luminescence
Experimental: (§1) NCI-H929 cell lines were purchased from ATCC (Cat #ATCC® CRL-9068™), RPMI1640 media were purchased from ATCC (Cat #ATCC® 30-2001™), FBS was purchased from Gibco (Cat #10091148), celltiter-glo luminescent cell viability assay was purchased from promega (Cat #G7572), and 96-well plates were purchased from coming (Cat #3610).
(§2) 2. Method The effect of compounds on the growth of NCI-H929 cells was determined by measuring cell viability and growth rate. Firstly, cells in the logarithmic growth phase were collected and centrifuged, and the culture supernatant was discarded. The centrifuged cells were resuspended in a fresh complete medium, and the cell density was adjusted to 5×10^4 cells/mL. The resuspended cells were inoculated into two identical opaque 96-well cell culture plates at 100 μL of cell suspension per well, and the cell culture plates were incubated in a cell incubator at 37° C. for 4 h. After 4 h, dilutions (20 μL) of compounds with different concentrations were added. After one of the cell plates was cooled to room temperature, 60 μL of CTG reagent was added, and the luminescence values were read on the instrument as G0. The other one was incubated in a cell incubator for 48 h. After 48 h, 60 μL of CTG reagent was added, and the luminescence values were read on the instrument as G3.
(§3) According to the corresponding proliferation rate and concentration of each gradient concentration well, a gradient curve of cell proliferation was fitted using XLFit software, and the GI50 values of compounds were calculated.

Structure (SMILES) | GI50 [nM]
COc1ccc2c(c1)nc([C@H]1CC[C@H](NC(=O)c3cc(CNc4cccc5c4C(=O)N(C4CCC(=O)NC4=O)C5=O)ccn3)CC1)n2C (stereo partly shown) [Example 90] | 0.93
O=C1CCC(N2C(=O)c3cccc(NCc4cccc(C(=O)NC5CCC(c6nc7ccccc7o6)CC5)c4)c3C2=O)C(=O)N1 (stereo not shown) [Example 16] | 0.96

tested on: Raji cells; test: Raji cell killing experiment (CellTiter-Glo cell viability); assay type: cell-based; conditions: Homo sapiens, 48 h incubation, CTG luminescence
Experimental: as §1, with “Raji” for “NCI-H929”, “CCL-86™),” for “CRL-9068™),”
as §2, with “The” for “2. Method The”, “Raji” for “NCI-H929”
as §3

Structure (SMILES) | GI50 [nM]
COc1ccc2nc([C@H]3CC[C@H](C(=O)Nc4cccc(CNc5cccc6c5C(=O)N(C5CCC(=O)NC5=O)C6=O)c4)CC3)sc2n1 (stereo partly shown) [Example 97] | 3.43
COc1ccc2c(c1)nc([C@H]1CC[C@H](COc3cc(CNc4cccc5c4C(=O)N(C4CCC(=O)NC4=O)C5=O)ccn3)CC1)n2C (stereo partly shown) [Example 75] | 1.79
COc1ccc2c(c1)nc([C@H]1CC[C@H](NC(=O)c3cc(CNc4cccc5c4C(=O)N(C4CCC(=O)NC4=O)C5=O)ccn3)CC1)n2C (stereo partly shown) [Example 90] | 5.88
O=C1CCC(N2C(=O)c3cccc(NCc4cccc(C(=O)NC5CCC(c6nc7ccccc7o6)CC5)c4)c3C2=O)C(=O)N1 (stereo not shown) [Example 16] | 362

tested on: THP-1 cells; test: THP-1 cell killing experiment (CellTiter-Glo cell viability); assay type: cell-based; conditions: Homo sapiens, 48 h incubation, CTG luminescence
Experimental: as §1, with “THP-1” for “NCI-H929”, “TIB-202™),” for “CRL-9068™),”
as §2, with “The” for “2. Method The”, “THP-1” for “NCI-H929”
as §3

Structure (SMILES) | GI50 [nM]
COc1ccc2nc([C@H]3CC[C@H](C(=O)Nc4cccc(CNc5cccc6c5C(=O)N(C5CCC(=O)NC5=O)C6=O)c4)CC3)sc2n1 (stereo partly shown) [Example 97] | 2.58
COc1ccc(CNc2cccc3c2C(=O)N(C2CCC(=O)NC2=O)C3=O)cc1C(=O)N[C@H]1CC[C@H](c2nc3ccncc3n2C)CC1 (stereo partly shown) [Example 89] | 5.65
COc1ccc2c(c1)nc([C@H]1CC[C@H](NC(=O)c3cc(CNc4cccc5c4C(=O)N(C4CCC(=O)NC4=O)C5=O)ccn3)CC1)n2C (stereo partly shown) [Example 90] | 4.14

molecular target: T1, GSPT1 (Homo sapiens, UniProt P15170+Q96SW2); test: Degradation of GSPT1 by the compounds (HiBiT signal in GSPT1/HEK293 hibit cells); assay type: cell-based; conditions: 6 h incubation, Nano Glo HiBiT Lytic Detection
T1 construct: host or cells: HEK293
T1 sequence (P15170 whole entry): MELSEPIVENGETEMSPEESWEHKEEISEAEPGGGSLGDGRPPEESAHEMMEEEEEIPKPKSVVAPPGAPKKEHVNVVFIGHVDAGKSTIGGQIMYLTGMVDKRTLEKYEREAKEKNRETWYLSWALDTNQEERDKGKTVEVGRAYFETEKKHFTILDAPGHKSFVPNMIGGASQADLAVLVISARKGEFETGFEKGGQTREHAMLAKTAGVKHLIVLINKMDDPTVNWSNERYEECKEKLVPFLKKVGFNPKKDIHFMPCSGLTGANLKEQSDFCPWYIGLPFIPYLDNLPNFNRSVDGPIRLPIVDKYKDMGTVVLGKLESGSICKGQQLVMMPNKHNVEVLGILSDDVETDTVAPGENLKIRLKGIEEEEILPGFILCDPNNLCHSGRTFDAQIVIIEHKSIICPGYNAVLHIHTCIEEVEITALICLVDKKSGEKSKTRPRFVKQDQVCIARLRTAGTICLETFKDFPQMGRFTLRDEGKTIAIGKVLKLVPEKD
T1 sequence (Q96SW2 whole entry): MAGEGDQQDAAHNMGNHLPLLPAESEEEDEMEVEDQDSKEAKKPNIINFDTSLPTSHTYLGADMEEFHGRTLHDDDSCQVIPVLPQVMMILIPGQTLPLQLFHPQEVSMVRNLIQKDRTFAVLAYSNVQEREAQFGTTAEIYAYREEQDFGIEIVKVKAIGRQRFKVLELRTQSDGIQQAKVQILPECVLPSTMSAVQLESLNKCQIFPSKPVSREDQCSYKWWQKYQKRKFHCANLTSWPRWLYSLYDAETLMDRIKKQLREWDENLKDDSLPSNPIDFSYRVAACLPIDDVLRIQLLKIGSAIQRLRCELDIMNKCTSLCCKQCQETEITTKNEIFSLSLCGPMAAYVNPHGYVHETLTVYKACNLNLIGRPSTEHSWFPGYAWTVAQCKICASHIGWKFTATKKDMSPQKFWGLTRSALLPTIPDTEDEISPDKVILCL
T1 sequence (Q16531 whole entry partner): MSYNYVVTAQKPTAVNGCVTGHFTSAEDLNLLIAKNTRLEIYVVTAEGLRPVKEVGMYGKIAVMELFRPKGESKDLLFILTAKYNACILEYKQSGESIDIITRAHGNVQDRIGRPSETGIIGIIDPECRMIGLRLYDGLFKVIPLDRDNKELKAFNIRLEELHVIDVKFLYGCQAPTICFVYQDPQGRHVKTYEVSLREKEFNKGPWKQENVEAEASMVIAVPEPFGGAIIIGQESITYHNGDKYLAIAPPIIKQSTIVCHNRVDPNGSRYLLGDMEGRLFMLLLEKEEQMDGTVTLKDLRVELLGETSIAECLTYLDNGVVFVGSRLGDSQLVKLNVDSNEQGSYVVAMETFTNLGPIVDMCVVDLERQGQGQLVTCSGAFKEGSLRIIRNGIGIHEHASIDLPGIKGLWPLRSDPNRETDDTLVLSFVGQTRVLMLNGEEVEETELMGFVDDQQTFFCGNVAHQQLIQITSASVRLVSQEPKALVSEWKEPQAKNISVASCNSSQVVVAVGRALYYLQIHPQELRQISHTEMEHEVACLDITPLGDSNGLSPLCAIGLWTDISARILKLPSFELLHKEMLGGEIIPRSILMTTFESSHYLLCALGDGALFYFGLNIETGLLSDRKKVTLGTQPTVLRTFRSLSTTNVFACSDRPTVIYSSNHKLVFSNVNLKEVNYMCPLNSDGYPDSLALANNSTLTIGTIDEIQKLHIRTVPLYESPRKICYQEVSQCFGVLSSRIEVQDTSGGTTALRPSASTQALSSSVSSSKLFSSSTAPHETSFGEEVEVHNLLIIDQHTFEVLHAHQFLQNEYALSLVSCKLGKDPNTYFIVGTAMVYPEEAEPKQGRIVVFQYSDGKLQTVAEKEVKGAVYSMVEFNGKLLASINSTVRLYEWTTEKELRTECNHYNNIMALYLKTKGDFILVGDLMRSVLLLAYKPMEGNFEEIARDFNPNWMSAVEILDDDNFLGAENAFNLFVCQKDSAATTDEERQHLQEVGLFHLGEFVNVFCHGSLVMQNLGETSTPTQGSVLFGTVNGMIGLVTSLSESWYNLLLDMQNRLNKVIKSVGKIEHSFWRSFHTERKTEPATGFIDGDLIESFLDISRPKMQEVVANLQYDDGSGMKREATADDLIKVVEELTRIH
In short: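 HEK293 cells with HiBiT-tagged GSPT1 seeded overnight, then treated with serial compound dilutions for 6 h at 37° C. Remaining GSPT1 measured by HiBiT lytic luminescence; DC50 from fitted degradation-concentration curve.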

Structure (SMILES) | DC50 [nM]
COc1ccc2nc([C@H]3CC[C@H](C(=O)Nc4cccc(CNc5cccc6c5C(=O)N(C5CCC(=O)NC5=O)C6=O)c4)CC3)sc2n1 (stereo partly shown) [Example 97] | < 100
COc1ccc2c(c1)nc([C@H]1CC[C@H](COc3cc(CNc4cccc5c4C(=O)N(C4CCC(=O)NC4=O)C5=O)ccn3)CC1)n2C (stereo partly shown) [Example 75] | < 100
COc1ccc(CNc2cccc3c2C(=O)N(C2CCC(=O)NC2=O)C3=O)cc1C(=O)N[C@H]1CC[C@H](c2nc3ccncc3n2C)CC1 (stereo partly shown) [Example 89] | < 100
COc1ccc2c(c1)nc([C@H]1CC[C@H](NC(=O)c3cc(CNc4cccc5c4C(=O)N(C4CCC(=O)NC4=O)C5=O)ccn3)CC1)n2C (stereo partly shown) [Example 90] | < 100
O=C1CCC(N2C(=O)c3cccc(NCc4cccc(C(=O)NC5CCC(c6nc7ccccc7o6)CC5)c4)c3C2=O)C(=O)N1 (stereo not shown) [Example 16] | < 100

tested on: SU-DHL-2 cells; test: SU-DHL-2 cell killing experiment (CellTiter-Glo cell viability); assay type: cell-based; conditions: Homo sapiens, 48 h incubation, CTG luminescence
Experimental: as §1, with “SU-DHL-2” for “NCI-H929”, “CRL-2956™),” for “CRL-9068™),”
as §2, with “The” for “2. Method The”, “SU-DHL-2” for “NCI-H929”
as §3

Structure (SMILES) | GI50 [nM]
COc1ccc2nc([C@H]3CC[C@H](C(=O)Nc4cccc(CNc5cccc6c5C(=O)N(C5CCC(=O)NC5=O)C6=O)c4)CC3)sc2n1 (stereo partly shown) [Example 97] | 1.51
COc1ccc2c(c1)nc([C@H]1CC[C@H](COc3cc(CNc4cccc5c4C(=O)N(C4CCC(=O)NC4=O)C5=O)ccn3)CC1)n2C (stereo partly shown) [Example 75] | 0.93
COc1ccc(CNc2cccc3c2C(=O)N(C2CCC(=O)NC2=O)C3=O)cc1C(=O)N[C@H]1CC[C@H](c2nc3ccncc3n2C)CC1 (stereo partly shown) [Example 89] | 1.42

tested on: Toledo cells; test: Toledo cell killing experiment (CellTiter-Glo cell viability); assay type: cell-based; conditions: Homo sapiens, 48 h incubation, CTG luminescence
Experimental: as §1, with “Toledo” for “NCI-H929”, “CRL-2631™),” for “CRL-9068™),”
as §2, with “The” for “2. Method The”, “Toledo” for “NCI-H929”
as §3

Structure (SMILES) | GI50 [nM]
COc1ccc2c(c1)nc([C@H]1CC[C@H](COc3cc(CNc4cccc5c4C(=O)N(C4CCC(=O)NC4=O)C5=O)ccn3)CC1)n2C (stereo partly shown) [Example 75] | 0.45

tested on: Jurkat cells; test: Jurkat cell killing experiment (CellTiter-Glo cell viability); assay type: cell-based; conditions: Homo sapiens, 48 h incubation, CTG luminescence
Experimental: as §1, with “Jurkat” for “NCI-H929”, “TIB-152™),” for “CRL-9068™),”
as §2, with “The” for “2. Method The”, “Jurkat” for “NCI-H929”
as §3

Structure (SMILES) | GI50 [nM]
COc1ccc2c(c1)nc([C@H]1CC[C@H](COc3cc(CNc4cccc5c4C(=O)N(C4CCC(=O)NC4=O)C5=O)ccn3)CC1)n2C (stereo partly shown) [Example 75] | 0.4
COc1ccc(CNc2cccc3c2C(=O)N(C2CCC(=O)NC2=O)C3=O)cc1C(=O)N[C@H]1CC[C@H](c2nc3ccncc3n2C)CC1 (stereo partly shown) [Example 89] | 0.5
O=C1CCC(N2C(=O)c3cccc(NCc4cccc(C(=O)NC5CCC(c6nc7ccccc7o6)CC5)c4)c3C2=O)C(=O)N1 (stereo not shown) [Example 16] | 4.07

tested on: Hep3B cells; test: Hep3B cell killing experiment (CellTiter-Glo cell viability); assay type: cell-based; conditions: Homo sapiens, 48 h incubation, CTG luminescence
Experimental: as §1, with “Hep3B” for “NCI-H929”, “HB-8064™), EMEM” for “CRL-9068™), RPMI1640”, “30-2003™),” for “30-2001™),”
The effect of compounds on the growth of Hep3B cells was determined by measuring cell viability and growth rate. Firstly, the cells were digested with pancreatin, and the digestion was then terminated with medium. The cells were centrifuged, and the supernatant was discarded. The centrifuged cells were resuspended in a fresh complete medium, and the cell density was adjusted to 5×10^4 cells/mL. The resuspended cells were inoculated into two identical opaque 96-well cell culture plates at 100 μL of cell suspension per well, and the cell culture plates were incubated in a cell incubator at 37° C. overnight. The next day, dilutions (20 μL) of compounds with different concentrations were added. After one of the cell plates was cooled to room temperature, 60 μL of CTG reagent was added. The luminescence values were read on the instrument as G0. The other one was incubated in a cell incubator for 48 h. After 48 h, 60 μL of CTG reagent was added, and the luminescence values were read on the instrument as G3.
as §3

Structure (SMILES) | GI50 [nM]
COc1ccc2nc([C@H]3CC[C@H](C(=O)Nc4cccc(CNc5cccc6c5C(=O)N(C5CCC(=O)NC5=O)C6=O)c4)CC3)sc2n1 (stereo partly shown) [Example 97] | 0.46
O=C1CCC(N2C(=O)c3cccc(NCc4cccc(C(=O)NC5CCC(c6nc7ccccc7o6)CC5)c4)c3C2=O)C(=O)N1 (stereo not shown) [Example 16] | 1.36

tested on: HL60 cells; test: HL60 cell killing experiment (CellTiter-Glo cell viability); assay type: cell-based; conditions: Homo sapiens, HL-60, 48 h incubation, CTG luminescence
In short: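 Cells seeded at 5×10^4 cells/mL, dosed after 4 h at 37 °C, then grown for 48 h. CellTiter-Glo luminescence read at the time of dosing (G0) and after 48 h (G3). GI50 fitted from proliferation rate versus concentration.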

Structure (SMILES) | GI50 [nM]
COc1ccc2nc([C@H]3CC[C@H](C(=O)Nc4cccc(CNc5cccc6c5C(=O)N(C5CCC(=O)NC5=O)C6=O)c4)CC3)sc2n1 (stereo partly shown) [Example 97] | < 100
COc1ccc2c(c1)nc([C@H]1CC[C@H](COc3cc(CNc4cccc5c4C(=O)N(C4CCC(=O)NC4=O)C5=O)ccn3)CC1)n2C (stereo partly shown) [Example 75] | < 100
COc1ccc(CNc2cccc3c2C(=O)N(C2CCC(=O)NC2=O)C3=O)cc1C(=O)N[C@H]1CC[C@H](c2nc3ccncc3n2C)CC1 (stereo partly shown) [Example 89] | < 100
COc1ccc2c(c1)nc([C@H]1CC[C@H](NC(=O)c3cc(CNc4cccc5c4C(=O)N(C4CCC(=O)NC4=O)C5=O)ccn3)CC1)n2C (stereo partly shown) [Example 90] | < 100
O=C1CCC(N2C(=O)c3cccc(NCc4cccc(C(=O)NC5CCC(c6nc7ccccc7o6)CC5)c4)c3C2=O)C(=O)N1 (stereo not shown) [Example 16] | < 100
